This note sets out measurements from US10111426B2, “Biocidal materials” (priority 2011, dated 2018).

The data set in a line: ultimate aerobic biodegradability in aqueous medium, OECD method 301 B. Conditions: on the fourteenth day / after 14 days. As for the experimental part:
This test is an evaluation, in aqueous medium, of the ultimate aerobic biodegradability of a sample of the concentrated formulation according to the invention. This test is carried out according to the provisions of OECD method 301 B at the concentration of […] corresponding to an organic carbon content of 10 mg/l. The theoretical amount of carbon dioxide formed (CO2Th) in the “concentrated disinfectant detergent for floors, surfaces and materials at 10 mg/l of DOC” test is equal to 33.0 mg/l.
The physicochemical analysis is carried out according to standard ASTM D5291.
FIG. 1 represents the curves of results of degradation with respect to CO2Th.

`CC(=O)[O-].[Na+]` [sodium acetate] gave a percentage degradation of 81%.
